“And” between values parts separate entries of the source, which are not always exact repeats. Identical values can stand only once.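 Cultured in 96-well plates, cells were exposed to test compound for 48 hours across five concentrations. GI50 is the concentration that inhibits growth by half. At the TGI there is no net growth.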

The test system of one experiment is NCI-H460 lung. The experiment can be described thus: DTP human tumour cell line panel, 48 h.
Consider `CC(C)C(=O)NS(=O)(=O)c1ccccc1`, for which the TGI – broadly, the concentration at which net growth stops – is over 100 µM.
The molecule `COC1(OC)CC2C(=O)N(Cc3ccccc3)C1C=C2S(=O)(=O)c1ccccc1` (stereo unspecified) gave a TGI of 38.6 µM.
Consider `Cc1cc(C)c(/C=C2\C(=O)Nc3ccc(NC(=O)CCCCCCC(=O)NO)cc32)[nH]1`, for which the GI50 (usually the concentration at which growth is held to half of that of the control) was over 50.6 µM and the TGI was over 100 µM.
The like results for `CC(=O)[O][Ga]([Br])[O]C(C)=O` were, in that order, over 100 µM and over 100 µM.
For `COc1cc2c(OC)cc1CSCc1sc(C)c(c1Br)CSC2`, the TGI is over 100 µM.
Same read-out and setting: the result for `CC(C)N(C(=O)C12C3C4C1(I)C1C2C3(I)C41C(=O)N(C(C)C)C(C)C)C(C)C` (stereo unspecified) reads over 100 µM; that for `Cc1cccc(C)c1NC(=O)C(=O)C(C(=O)c1ccccc1-c1ccccc1)C1OC(=O)c2ccccc21` (stereo unspecified), 78.2 µM; that for `CC1COC(C)(C)P(=O)(c2ccccc2)C1` (stereo unspecified), over 100 µM.
Take `Cc1ccc(S(=O)(=O)c2ccc(N)cc2)cc1`: the TGI was over 100 µM.
Same read-out and setting: the result for `CCOP(=O)(OCC)OC1C=CC2CCC1C2` (stereo unspecified) reads over 100 µM; that for `COC(=O)[C@H]1C=C[C@@H](C)n2c(=O)c3cc4ccccc4cc3c(=O)n21`, over 100 µM.
Same read-out and setting: the result for `COc1cc(C=O)c(-c2cc(OC)c(OC)cc2C=O)cc1OC` reads over 100 µM; that for `N#CC(C(=O)C(=O)Nc1ccc(Cl)cc1)c1ccccc1` (stereo unspecified), over 100 µM.
Take `COc1c[c]([Hg][O]C(C)=O)c(OC)c(NC(=O)CC(C)=O)[c]1[Hg][O]C(C)=O`: the GI50 was 16.3 µM and the TGI stood at 39 µM.
The molecule `COC(=O)/C=C1\CCC(C)O1` (stereo unspecified) registered a TGI of over 100 µM.
Same read-out and setting: with `O=C(/C=C/c1ccccc1Cl)NC1C=Nc2ccc([N+](=O)[O-])cc2NC1` (stereo unspecified) the figure was over 100 µM; with `CCCO/S(=N\S(=O)(=O)c1ccccc1)c1ccccc1[N+](=O)[O-]` (stereo unspecified), over 100 µM; with `Cc1ccc(C)c(N=C2NC(=O)C(CC(=O)Nc3ccc(Cl)cc3Cl)S2)c1` (stereo unspecified), over 100 µM.
On the same count and under the same terms, with `C/C(CC(=O)Nc1cccc(Cl)c1C)=N\NC(=O)c1ccncc1` the figure was over 100 µM; with `Cc1cc(NS(=O)(=O)c2ccc(Nc3c4ccccc4nc4c(C(=O)N5CCN(CCO)CC5)ccc(Cl)c34)cc2)no1`, over 100 µM.
`COC(=O)[C@@H](C)C[C@H](Cc1ccccc1)NC(=O)c1csc([C@@H](C[C@H](C(C)C)N(C)C(=O)[C@@H](NC(=O)[C@H]2CCCCN2C)C2CCCCC2)OC(C)=O)n1`: the GI50 was 0.000321 µM and 0.0025 µM; the TGI is over 25 µM.
Molecule `Cc1nc([N+](=O)[O-])cn1CC(=N)N` displayed a TGI of over 100 µM.
The same measure, in the same setting: with `COC(=O)/C=C/c1c(CC=C(C)C)ncn1C` the figure was over 100 µM; with `CC(C)C(=O)Nc1nc2c(ncn2C2OC(CO)C(O)C2O)c(=O)[nH]1` (stereo unspecified), over 100 µM.
The molecule `O=S(=O)(c1ccccc1)C1CN2OC1(S(=O)(=O)c1ccccc1)CC2c1ccc(Br)cc1` (stereo unspecified) displayed a concentration for total growth inhibition (TGI) of over 100 µM.
For `O=Cc1ccc2c(c1-c1c(C=O)ccc3c1OCO3)OCO2`, the TGI is over 100 µM.
On the same count and under the same terms, the result for `CC(=O)O[C@H]1CCC2[C@@H]3CCC4Nc5[nH]ncc5C[C@]4(C)C3CC[C@@]21C` (stereo partly specified) reads over 100 µM.
With `Cc1cc(C)nc(NS(=O)(=O)c2ccc(NC(=O)c3cccc4c(Nc5ccc(S(N)(=O)=O)cc5)c5ccccc5nc34)cc2)n1`, the TGI was over 100 µM.
For the molecule `Cc1cc(S(=O)(=O)O)c(NC(=O)C(=O)Cc2cc(=O)oc3cc(O)ccc23)cc1Cl`, the total growth inhibition concentration (TGI) was over 100 µM.

In another experiment the test system is NCI/ADR-RES ovarian. The experiment can be described thus: DTP human tumour cell line panel, 48 h.
As to `Cc1cc(C)c(/C=C2\C(=O)Nc3ccc(NC(=O)CCCCCCC(=O)NO)cc32)[nH]1`, the GI50 was over 100 µM and the TGI was over 100 µM.
With `COC(=O)[C@@H](C)C[C@H](Cc1ccccc1)NC(=O)c1csc([C@@H](C[C@H](C(C)C)N(C)C(=O)[C@@H](NC(=O)[C@H]2CCCCN2C)C2CCCCC2)OC(C)=O)n1`, the GI50 was 0.0215 µM and 0.0481 µM; the TGI is over 25 µM.

Another experiment relates to OVCAR-5 ovarian. The experiment is described as follows: DTP human tumour cell line panel, 48 h.
`CC(C)C(=O)NS(=O)(=O)c1ccccc1` showed a TGI of over 100 µM.
As for `Cc1cc(C)c(/C=C2\C(=O)Nc3ccc(NC(=O)CCCCCCC(=O)NO)cc32)[nH]1`, the GI50 is 1.09 µM and the TGI is over 54.1 µM.
The like results for `CC(=O)[O][Ga]([Br])[O]C(C)=O` were, in that order, over 100 µM and over 100 µM.
In turn, `COc1cc2c(OC)cc1CSCc1sc(C)c(c1Br)CSC2` yielded a TGI of over 100 µM.
On the same count and under the same terms, with `CC(C)N(C(=O)C12C3C4C1(I)C1C2C3(I)C41C(=O)N(C(C)C)C(C)C)C(C)C` (stereo unspecified) the figure was over 100 µM; with `Cc1cccc(C)c1NC(=O)C(=O)C(C(=O)c1ccccc1-c1ccccc1)C1OC(=O)c2ccccc21` (stereo unspecified), 48.9 µM; with `CC1COC(C)(C)P(=O)(c2ccccc2)C1` (stereo unspecified), over 100 µM.
On the same count and under the same terms, the result for `Cc1ccc(S(=O)(=O)c2ccc(N)cc2)cc1` reads over 100 µM; that for `CCOP(=O)(OCC)OC1C=CC2CCC1C2` (stereo unspecified), over 100 µM; that for `COC(=O)[C@H]1C=C[C@@H](C)n2c(=O)c3cc4ccccc4cc3c(=O)n21`, over 100 µM.
Still for that read-out and setting: the result for `COc1cc(C=O)c(-c2cc(OC)c(OC)cc2C=O)cc1OC` reads over 100 µM; that for `N#CC(C(=O)C(=O)Nc1ccc(Cl)cc1)c1ccccc1` (stereo unspecified), over 100 µM.
As for `COc1c[c]([Hg][O]C(C)=O)c(OC)c(NC(=O)CC(C)=O)[c]1[Hg][O]C(C)=O`, the GI50 was 19.3 µM and the TGI was 33.7 µM.
As to `COC(=O)/C=C1\CCC(C)O1` (stereo unspecified), the TGI is over 100 µM.
As to `O=C(/C=C/c1ccccc1Cl)NC1C=Nc2ccc([N+](=O)[O-])cc2NC1` (stereo unspecified), the TGI is over 100 µM.
The same measure, in the same setting: the result for `CCCO/S(=N\S(=O)(=O)c1ccccc1)c1ccccc1[N+](=O)[O-]` (stereo unspecified) reads over 100 µM; that for `Cc1ccc(C)c(N=C2NC(=O)C(CC(=O)Nc3ccc(Cl)cc3Cl)S2)c1` (stereo unspecified), over 100 µM.
The same measure, in the same setting: the result for `C/C(CC(=O)Nc1cccc(Cl)c1C)=N\NC(=O)c1ccncc1` reads over 100 µM; that for `Cc1cc(NS(=O)(=O)c2ccc(Nc3c4ccccc4nc4c(C(=O)N5CCN(CCO)CC5)ccc(Cl)c34)cc2)no1`, over 100 µM.
For `COC(=O)[C@@H](C)C[C@H](Cc1ccccc1)NC(=O)c1csc([C@@H](C[C@H](C(C)C)N(C)C(=O)[C@@H](NC(=O)[C@H]2CCCCN2C)C2CCCCC2)OC(C)=O)n1`, the GI50 was 0.00685 µM and 0.0025 µM; the TGI was over 25 µM.
